Reference: patent US20240085429A1, “ALTERING PROTEIN FUNCTION BY PHARMACOLOGICAL TARGETING OF MEMBRANE DOMAINS” (University of Virginia Patent Foundation, priority 2021, published 2024)

System: GPMVs isolated from HeLa cells
Experiment: High-throughput screen of the Cayman bioactive lipid library for effects on GPMV phase behavior (% phase separated vesicles, NBD-DSPE phase preference)
Design: species or system human
Conditions: HeLa GPMVs, RT; for Effect on Pang(ϕ): NBD-DSPE raft phase preference; for Effect on Pang(ϕ) / % phase separated z-score / Pordered z-score: final 1 μM; for % phase separated z-score / Pordered z-score: Table 4; for Pordered z-score: NBD-DSPE; for Effect on % phase separated vesicles: final drug concentration 1 μM, NBD-DSPE channel
Procedure: This approach is not practical for high throughput screening applications, which typically are performed at a single temperature. Changes in the percentage of phase-separated GPMVs were monitored at a single temperature in response to the addition of small molecules as a surrogate for measuring Tmisc directly (FIG. 1A). This approach requires that a significant fraction of GPMVs are phase separated under control conditions, such that experimentally-induced changes can be readily detected.
In phase separated vesicles these markers are enriched in their preferred domains, such that a given vesicle contains a co-existing NBD-DSPE-rich phase and a DiD-rich phase. In contrast, NBD-DSPE and DiD colocalize in a single uniform phase in GPMVs that are not phase separated. We also optimized conditions to isolate and plate GPMVs in multi-well plates.
To provide proof-of-concept, the Cayman lipid library containing ˜850 bioactive lipid-like compounds in the Vanderbilt High-throughput Screening Facility was screened, using […] of each compound across three independent screens. All screens were carried out using an automated microscope/high-content imaging system and robotic plate handler at RT. […] Compounds were initially scored based on their capacity to alter the percentage of phase separated vesicles (FIG. 2A).
HeLa cells were obtained from ATCC (cat #CCL-2) and cultured at 37° C. in 5% CO2 in a humidified tissue culture incubator. […] In brief, cells were plated in 150 mm tissue culture dishes the day before the experiment, to yield a confluence of 70-80% the day of the experiment. To generate GPMVs, cells were rinsed twice in 10 ml of GPMV buffer (2 mM DTT, 25 mM formaldehyde, 150 mM NaCl, 10 mM HEPES, 2 mM CaCl2), pH=7.4) and subsequently incubated in 12 ml of GPMV buffer at 37° C. with gentle shaking at 70 rpm for 1.5 h. The raft marker NBD-DSPE (1,2-distearoyl-sn-glycero-3-phosphoethanolamine-N-(7-nitro-2-1,3-benzoxadiazol-4-yl; Avanti Polar Lipids) and the non-raft marker DiD (1,1′-dioctadecyl-3,3,3′,3′-tetramethylindodicarbocyanine perchlorate; cat #D307 Thermo Scientific) were added from stock solutions in ethanol to the GPMV suspension at final concentrations of 5-6 μg/ml and 1 μg/ml, respectively, for the initial screenings. For some experiments, cells were prelabelled with 5 μg/ml DiD for 8 min at 4° C. and washed several times prior to GPMVs generation. Screening was performed the same day that GPMVs were generated.
[…] GPMVs suspension in GPMV buffer was then added to each well of a 96-well plate to obtain a final drug concentration of 1 μM. The GPMVs were allowed to settle to the bottom of the plates for 1.5 h prior to imaging. Samples were prepared and imaged at RT. The screen was repeated on three different days using three separately prepared batches of GPMVs (3 biological replicates).
Image acquisition was performed with an ImageXpress Micro XL automated microscope (Molecular Devices) using a Nikon 40X 0.6 NA Super Plan Fluor ELWD objective and a Lumencor Sola solid-state light source. Laser autofocus was employed at each site to obtain the best focus z-plane for each channel. […] Sixteen sites were captured per well using a 4.2 MP widefield scientific cMOS camera with a camera binning of 1. Each plate took approximately 1.3 h to image. Multiple plates were loaded to a plate carousel (ThermoScientific), shuttled to/from the ImageXpress via a ThermoScientific CRS F3 robot arm, and automatically run through the Momentum scheduling software (Thermo). To analyze the data, images and metadata were exported as TIFF files and subjected to image analysis using a custom MATLAB-based program as described below.

CCCCCCCCCCCCCCCCOC[C@H](COP(=O)([O-])OCC[N+](C)(C)C)OC [2-O-methyl PAF C-16, 1-O-hexadecyl-2-O-methyl-sn-glyceryl-3-phosphorylcholine]
Effect on Pang(ϕ): ↑
% phase separated z-score: −1.06
Pordered z-score: 2.68

CCCCCCCCCCCCCCCCOCC(COP(=O)([O-])OCC[N+](C)(C)C)SC(C)=O (stereo not shown) [2-thio-PAF, 1-O-hexadecyl-2-deoxy-2-thio-S-acetyl-sn-glyceryl-3-phosphorylcholine]
Effect on % phase separated vesicles: ↓
% phase separated z-score: −3.15
Pordered z-score: −0.72

Cl.c1cc(N2CCNCC2)c2cnccc2c1 [8-piperazin-1-yl-Isoquinoline (hydrochloride)]
Effect on % phase separated vesicles: ↑
% phase separated z-score: 2.14
Pordered z-score: 1.61

CCCCC/C=C\C/C=C\CCCCCCCCCC(=O)O [11(Z),14(Z)-Eicosadienoic Acid]
Effect on % phase separated vesicles: ↓
% phase separated z-score: −2.15
Pordered z-score: −0.46

CCCCCCCC/C=C\CCCCCCCC(=O)OC[C@@H](COP(O)(O)=S)OC.CCN(CC)CC.CCN(CC)CC [(2S)-OMPT, 9Z-octadecenoic acid, (2S)-3-[(hydroxymercaptophosphinyl)oxy]-2-methoxypropyl ester, triethyl ammonium salt (1:2)]
Effect on % phase separated vesicles: ↓
% phase separated z-score: −2.12
Pordered z-score: −0.27

CCCCC/C=C\C/C=C\C/C=C\C/C=C\CCCC(=O)NCCF [Arachidonoyl-2′-Fluoroethylamide]
Effect on Pang(ϕ): ↑
% phase separated z-score: 1.90
Pordered z-score: 2.38

CCCCCCCCCCCCC/C=C/[C@@H](O)[C@H](CO)NC(=O)CCCCCCC [C8 Ceramide (d18:1/8:0)]
Effect on % phase separated vesicles: ↓
% phase separated z-score: −2.87
Pordered z-score: −0.72

CCCCCCCCCCCC1NC(C(=O)O)CS1 (stereo not shown) [CAY10444, 2-undecyl-thiazolidine-4-carboxylic acid]
Effect on Pang(ϕ): ↓
% phase separated z-score: −1.61
Pordered z-score: −2.04

CC1(COc2ccc(CC3SC(=O)NC3=O)cc2)CCCCC1 (stereo not shown) [Ciglitazone]
% phase separated z-score: −2.73
Pordered z-score: −1.71

COc1ccc(-c2nc(C(=O)N3CCN(C)CC3)sc2-c2ccc(OC)cc2)cc1.Cl [FR122047 (hydrochloride), 1-[[4,5-bis(4-methoxyphenyl)-2-thiazolyl]carbonyl]-4-methyl-piperazine, monohydrochloride]
Effect on Pang(ϕ): ↓
% phase separated z-score: 0.12
Pordered z-score: −2.03

CC(C)c1ccc2c(c1)c(SC(C)(C)C)c(CC(C)(C)C(=O)O)n2Cc1ccc(Cl)cc1 [MK-886, 1-[(4-chlorophenyl)methyl]-3-[(1,1-dimethylethyl)thio]-α,α-dimethyl-5-(1-methylethyl)-1H-indole-2-propanoic acid]
Effect on Pang(ϕ): ↑
% phase separated z-score: 0.67
Pordered z-score: 2.10

CCCCCCCCCCCCCCCCOC[C@H](COP(=O)([O-])OCC[N+](C)(C)C)OC(=O)NC [Methylcarbamyl PAF C-16]
Effect on Pang(ϕ): ↑
% phase separated z-score: −0.58
Pordered z-score: 2.20

CCCCCCCCCCCCC/C=C/[C@@H](O)[C@H](CO)N(C)C [N,N-Dimethylsphingosine (d18:1)]
Effect on % phase separated vesicles: ↓
% phase separated z-score: −2.09
Pordered z-score: −0.70

CCCCCCCCCCCCCCCC(=O)NCCS(=O)(=O)O [N-Palmitoyl Taurine]
Effect on % phase separated vesicles: ↑
% phase separated z-score: 2.19
Pordered z-score: 1.66

CCCCCCCCCCCCCCCCCC(=O)NCCS(=O)(=O)O [N-Stearoyl Taurine]
Effect on % phase separated vesicles: ↑
Effect on Pang(ϕ): ↑
% phase separated z-score: 3.21
Pordered z-score: 2.89

C=C(C)[C@@H]1CCC(C)=C[C@H]1c1c(C)cc(O)cc1O [O-1602, 5-methyl-4-[(1R,6R)-3-methyl-6-(1-methylethenyl)-2-cyclohexen-1-yl] -1,3-benzenediol]
Effect on % phase separated vesicles: ↓
% phase separated z-score: −2.10
Pordered z-score: −0.27

CCCCCCCC/C=C\CCCCCCCC(=O)N[C@H](CO)c1ccc(O)cc1 [OMDM-1, (S)-N-(1-(4-hydroxyphenyl)-2-hydroxyethyl) oleamide]
Effect on % phase separated vesicles: ↓
% phase separated z-score: −2.62
Pordered z-score: −0.54

CCCCCCCCCCCCCCCCOC[C@H](COP(=O)([O-])OCC[N+](C)(C)C)OC(C)=O [PAF C-16, 1-O-hexadecyl-2-O-acetyl-sn-glyceryl-3-phosphorylcholine]
Effect on % phase separated vesicles: ↓
% phase separated z-score: −2.00
Pordered z-score: 1.87

Br.CCSC(=N)N [S-ethyl Isothiourea (hydrobromide)]
Effect on Pang(ϕ): ↑
% phase separated z-score: 0.85
Pordered z-score: 2.57

CN(C)S(=O)(=O)c1ccc2c(c1)C(=Cc1cc3c([nH]1)CCCC3)C(=O)N2 [SU6656, 2,3-dihydro-N,N-dimethyl-2-oxo-3-[(4,5,6,7-tetrahydro-1H-indol-2-yl)methylene]-1H-indole-5-sulfonamide]
Effect on % phase separated vesicles: ↓
% phase separated z-score: −2.06
Pordered z-score: −0.42

CCCCCCCCCCCCCCOc1ccc(C(=O)O)o1 [TOFA, 5-(Tetradecyloxy)-2-furancarboxylic acid]
Effect on % phase separated vesicles: ↓
% phase separated z-score: −3.41
Pordered z-score: −1.20

O=c1[nH]c(-c2ccc(C(F)(F)F)cc2)nc2c1CSCC2 [XAV939, 3,5,7,8-tetrahydro-2-[4-(trifluoromethyl)phenyl]-4H-thiopyrano[4,3-d]pyrimidin-4-one]
Effect on % phase separated vesicles: ↑
% phase separated z-score: 2.33
Pordered z-score: 0.58

COc1ccc(/C=C\c2cc(OC)cc(OC)c2)cc1 [cis-trismethoxy Resveratrol]
Effect on % phase separated vesicles: ↓
% phase separated z-score: −2.45
Pordered z-score: −1.61

CCCCCCCCCCCCCCCCSP(=O)([O-])OCC[N+](C)(C)C [thio-Miltefosine]
Effect on % phase separated vesicles: ↑
Effect on Pang(ϕ): ↑
% phase separated z-score: 2.12
Pordered z-score: 2.78

(−)-Epigallocatechin Gallate
Effect on % phase separated vesicles: ↑
% phase separated z-score: 4.33
Pordered z-score: 1.42
